The values below come from patent US8324172B2, “G protein coupled receptor agonists and antagonists and methods of activating and inhibiting G protein coupled receptors using the same” (Tufts Medical Center, Inc., priority 2000, dated 2012).

One test has as its target T1, PAR1 (Homo sapiens, UniProt P25116).
T1 construct: expressed in transfected cells
T1 sequence (P25116 22-425): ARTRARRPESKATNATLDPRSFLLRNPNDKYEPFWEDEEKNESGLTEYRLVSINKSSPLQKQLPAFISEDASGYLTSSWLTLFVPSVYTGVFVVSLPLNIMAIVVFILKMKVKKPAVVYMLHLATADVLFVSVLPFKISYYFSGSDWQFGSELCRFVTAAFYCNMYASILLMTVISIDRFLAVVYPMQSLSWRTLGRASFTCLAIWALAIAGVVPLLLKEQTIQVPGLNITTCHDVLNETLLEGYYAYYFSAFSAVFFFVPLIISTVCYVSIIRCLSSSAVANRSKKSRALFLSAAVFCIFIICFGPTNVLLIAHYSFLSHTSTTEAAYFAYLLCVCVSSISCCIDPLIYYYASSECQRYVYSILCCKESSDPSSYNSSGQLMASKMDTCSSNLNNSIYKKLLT
As to the kind of experiment: InsP formation (PLC-β) in Rat1 fibroblasts expressing human PAR1. The format is cell-based.

The subject of the next test is platelets. Briefly: Platelet intracellular Ca2+, agonist activity of peptides.

Where a SMILES comes first, the peptide text is derived from it. Where no end group is shown, it is not given here. The star is where a group is joined. Palmitoyl = CCCCCCCCCCCCCCCC(=O)*

As to “Y12pal-18: pepducin based on the i3-loop of P2Y12; peptide YVRTRGVGKVPRKKVNVF (SEQ ID NO:33) (also: palmitoyl lipid, position not given here) [Pepducin Y12pal-18]”, in the test on human platelets, the “agonist activity in platelet aggregation” value was “no agonist activity”.

As to `CCCCCCCCCCCCCCCC(=O)N[C@@H](CCCNC(=N)N)C(=O)N[C@@H](CS)C(=O)N[C@@H](CCC(=O)O)C(=O)N[C@@H](CO)C(=O)N[C@@H](CO)C(=O)N[C@@H](CO)C(=O)N[C@@H](C)C(=O)N[C@@H](CCC(=O)O)C(=O)N[C@@H](C)C(=O)N[C@@H](CC(N)=O)C(=O)N[C@@H](CCCNC(=N)N)C(=O)N[C@@H](CO)C(=O)N[C@@H](CCCCN)C(=O)N[C@@H](CCCCN)C(=O)N[C@@H](CCC(=O)O)C(=O)N[C@@H](CCCNC(=N)N)C(=O)N[C@@H](CCC(=O)O)C(=O)N[C@@H](CC(C)C)C(=O)N[C@@H](Cc1ccccc1)C(N)=O` [Pepducin P1pal-19E] (Palmitoyl-RCESSSAEANRSKKERELF-NH2), at PAR1, the “Agonist Efficacy” value is given as 11 ± 1% and the “loss of agonist activity” value is approximately 90%. The IC50 at PAR1 (Antagonist IC50) was more than 50 µM.

In the case of “VPLIISTVCYVSIIRCLSSSAVANRSKKSRALF [Pepducin P1-i3-33]”, the “agonist activity, platelet intracellular Ca2+” value in the test with platelets is on record as “has similar potency to the P1-i3-40 peptide”.

Consider “VCYVSIIRSLSSSAVANRSKKSRALF [Pepducin P1-i3-26]”, for which the “agonist activity, platelet intracellular Ca2+” value in the test on platelets is recorded as “gives a minor, unregulated Ca^2+i response”.

With `CCCCCCCCCCCCCCCC(=O)N[C@@H](CCCNC(=N)N)C(=O)N[C@@H](CS)C(=O)N[C@@H](CC(C)C)C(=O)N[C@@H](CO)C(=O)N[C@@H](CO)C(=O)N[C@@H](CO)C(=O)N[C@@H](C)C(=O)N[C@H](C(=O)N[C@@H](C)C(=O)N[C@@H](CC(N)=O)C(=O)N[C@@H](CCC(N)=O)C(=O)N[C@@H](CO)C(=O)N[C@@H](CCC(N)=O)C(=O)N[C@@H](CCC(N)=O)C(=O)N[C@@H](CO)C(=O)N[C@@H](CCC(N)=O)C(=O)N[C@@H](C)C(=O)N[C@@H](CC(C)C)C(=O)N[C@@H](Cc1ccccc1)C(N)=O)C(C)C` [Pepducin P1pal-19Q] (Palmitoyl-RCLSSSAVANQSQQSQALF-NH2), in the test on human platelets (relative to P1pal-19), the “loss in efficacy, platelet aggregation” value is on record as 2 fold. Besides, on PAR1, the “Agonist Efficacy” value is 46 ± 8% and the “loss in efficacy, stimulation of InsP” value is on record as 2 fold.

In the case of `CCCCCCCCCCCCCCCC(=O)O` [Palmitic acid, reference compound], the “agonist activity in platelet aggregation” value in the test with human platelets was “has no effect”. Moreover, in the test on platelets, the “agonist activity, platelet intracellular Ca2+” value is reported as “has no effect”.

“INLKALAALAKKIL [mastoparan, reference compound]”: the “stimulation of InsP production (agonist activity)” value with PAR1 is on record as “did not stimulate InsP production”.

Take “FSAVFFFVPL1ISTVCYVSI1RCLSSSAVANRSKKSRALF (FSAVFFFVPLIISTVCYVSIIRCLSSSAVANRSKKSRALF) [Pepducin P1-i3-40]”: in the test with platelets, the “agonist activity, platelet intracellular Ca2+” value was “causes a rapid intracellular Ca^2+ transient” and the “lag phase of Ca2+i transient” value is given as less than 5 s.

As to RSLSSSAVANRSKKSRALF [Pepducin P1-i3-19], the “agonist activity, platelet intracellular Ca2+” value in the test with platelets was “causes little stimulation of Ca^2+ fluxes”.
